Our source for the IC50 values is patent publication US7713994B2 (Wyeth LLC, priority 2005, dated 2010).

Molecules are shown by their SMILES. Like-named read-outs stand apart in the source and are kept apart here.

Holding throughout (format): cell-based
In one assay the test system is MCF-7. Description: Cytotoxicity assay (SRB), MCF-7. As to conditions: Homo sapiens, MCF7, 72 h, read-out: In Vitro Cellular Activity IC50 MCF-7. On the procedure: (§1) BT474, HCT-116, LoVo and MCF-7 were maintained under 7% CO2 in RPMI 1640 medium supplemented with 10% fetal bovine serum and 50 µg/ml gentamicin.
(§2) Cells were plated in 96-well microtiter dishes (12000 cells/well for BT474, 4000 cells/well for HCT-116, 6000 cells/well for LoVo and 6000 cells/well for MCF-7) in RPMI 1640 medium containing 5% fetal bovine serum and 50 µg/ml gentamicin. The cells were allowed to incubate overnight at 37° C., 7% CO2. Compound dilutions were prepared using the same medium. HCT-116, LoVo and MCF-7 cells were cultured for three days and BT474 cells were cultured for 6 days, in the presence of each compound dilution. Untreated cells were included as controls. The percentage of surviving cells was determined using a protein binding dye (sulforhodamineB, SRB) assay. Cellular protein was precipitated in each well by the addition of 0.05 ml of 50% cold trichloroacetic acid (TCA). After 1 hour, the plates were washed extensively in dH2O and dried. The sulforhodamineB dye solution (0.08 mL of 0.4% SRB in 1% acetic acid) was added to each well, kept at room temperature for ten minutes, then washed in 1% acetic acid and dried. The dye was dissolved in 10 mM Tris-HCl (150 uL) and the absorbency read at 540 nm.

In the next assay the test system is HCT-116. Put plainly: Cytotoxicity assay (SRB), HCT-116. As to conditions: Homo sapiens, HCT-116, 72 h, read-out: In Vitro Cellular Activity IC50 HCT116. The protocol:
as §1, §2

The test system of another assay is BT474. Description: Cytotoxicity assay (SRB), BT474. Conditions: Homo sapiens, BT-474, 144 h, read-out: In Vitro Cellular Activity IC50 BT474. The protocol:
as §1, §2

A further assay has as its system LoVo. Put plainly: Cytotoxicity assay (SRB), LoVo. As to conditions: Homo sapiens, LoVo, 72 h, read-out: In Vitro Cellular Activity IC50 LOVO. The protocol:
as §1, §2

As usually defined, the IC50 is the concentration that gives 50% inhibition. Regarding `Cc1ccc2c(c1)CNC(=O)C2=CNc1ccc(N2CCOCC2)cc1` [Example 858, 7-Methyl-4-[(4-morpholin-4-yl-phenylamino)-methylene]-1,4-dihydro-2H-isoquinolin-3-one], the IC50 stood at 34.7 µM in the assay with MCF-7 (MCF-7 cells, 3 days, SRB); 37.7 µM in the assay on HCT-116 (HCT116 cells, 3 days, SRB); 34.3 µM in the assay with BT474 (BT474 cells, 6 days, SRB); 39 µM in the assay on LoVo (LoVo cells, 3 days, SRB).

On to `COc1ccc(CN/C=C2\C(=O)NC(=O)c3ccc(Br)cc32)cc1F` [Example 181, (4Z)-6-Bromo-4-{[(3-fluoro-4-methoxybenzyl)amino]methylene}isoquinoline-1,3(2H,4H)-dione], for which the IC50 with MCF-7 (MCF-7 cells, SRB, three days) is greater than 50 µM; in the assay on HCT-116 (HCT116 cells, SRB, three days) it was 16 µM; in the assay on BT474 (BT474 cells, SRB, 6 days), greater than 50 µM; with LoVo (LoVo cells, SRB, three days) it was greater than 50 µM.

As for `O=C1NC(=O)c2ccc(Br)cc2/C1=C/Nc1ccc2ncccc2c1` [Example 271, (4Z)-6-Bromo-4-[(quinolin-6-ylamino)methylene]isoquinoline-1,3(2H,4H)-dione], the half-maximal inhibitory concentration (IC50) is 39 µM in the assay with MCF-7 (MCF-7 cells, SRB, three days); 46 µM in the assay with HCT-116 (HCT116 cells, SRB, three days); 32 µM in the assay with BT474 (BT474 cells, SRB, 6 days); greater than 50 µM in the assay on LoVo (LoVo cells, SRB, three days).

On to `O=C1NC(=O)c2ccc(Br)cc2/C1=C/NCc1ccccc1O` [Example 174, (4Z)-6-Bromo-4-{[(2-hydroxybenzyl)amino]methylene}isoquinoline-1,3(2H,4H)-dione], for which the IC50 with MCF-7 (MCF-7 cells, SRB, three days) is 50 µM; in the assay on HCT-116 (HCT116 cells, SRB, three days), 19 µM; in the assay on BT474 (BT474 cells, SRB, 6 days) it was 30 µM; in the assay with LoVo (LoVo cells, SRB, three days), 35 µM.

For the molecule `COc1ccc(CN/C=C2\C(=O)N(C(C)=O)N(C(C)=O)c3ccccc32)cc1O` [Example 167, (4Z)-1,2-Diacetyl-4-{[(3-hydroxy-4-methoxybenzyl)amino]methylene}-1,4-dihydrocinnolin-3(2H)-one], the IC50 in the assay on MCF-7 (MCF-7 cells, SRB, three days) turned out to be 13 µM; in the assay with HCT-116 (HCT116 cells, SRB, three days), 11 µM; with BT474 (BT474 cells, SRB, 6 days), 9.6 µM; with LoVo (LoVo cells, SRB, three days) it was 12 µM.

On to `COC(=O)Oc1cc(CN/C=C2\C(=O)NC(=O)c3ccc(Br)cc32)ccc1OC` [compound 83, 5-({[(Z)-(6-Bromo-1,3-dioxo-2,3-dihydroisoquinolin-4(1H)-ylidene)methyl]amino}methyl)-2-methoxyphenyl methyl carbonate], for which the half-maximal inhibitory concentration (IC50) was 29.9 µM in the assay with MCF-7 (MCF-7 cells, SRB, three days); 4.5 µM in the assay with HCT-116 (HCT116 cells, SRB, three days); 3.2 µM with BT474 (BT474 cells, SRB, 6 days); 2.6 µM in the assay on LoVo (LoVo cells, SRB, three days).

With `CC(C)(C)OC(=O)N1CCN(c2ccc(N/C=C3\C(=O)NC(=O)c4ccc(Br)cc43)cc2)CC1` [Example 294, tert-Butyl 4-(4-{[(Z)-(6-bromo-1,3-dioxo-2,3-dihydroisoquinolin-4(1H)-ylidene)methyl]amino}phenyl)piperazine-1-carboxylate], the 50% inhibitory concentration (IC50) was 24 µM in the assay on MCF-7 (MCF-7 cells, SRB, three days); 9 µM with HCT-116 (HCT116 cells, SRB, three days); 49 µM in the assay on BT474 (BT474 cells, SRB, 6 days); greater than 50 µM in the assay on LoVo (LoVo cells, SRB, three days).

`O=C1NC(=O)c2ccc(I)cc2/C1=C/NCc1ccc(-c2ccccn2)c(O)c1` [Example 509, 4-[(3-Hydroxy-4-pyridin-2-yl-benzylamino)-methylene]-6-iodo-4H-isoquinoline-1,3-dione]: the 50% inhibitory concentration (IC50) turned out to be 0.54 µM in the assay with MCF-7 (MCF-7 cells, 3 days, SRB); 0.25 µM in the assay on HCT-116 (HCT116 cells, 3 days, SRB); 0.13 µM in the assay on BT474 (BT474 cells, 6 days, SRB); 0.19 µM in the assay on LoVo (LoVo cells, 3 days, SRB).

`CN1C(=O)/C(=C\Nc2ccc(CN3CCCCC3)cc2)c2ccccc2C1=O` [Example 49, (4Z)-2-Methyl-4-{[(4-piperidin-1-ylmethyl)phenyl]amino}methyleneisoquinoline-1,3(2H,4H)-dione]: the IC50 was 13 µM in the assay on MCF-7, 5.5 µM in the assay on HCT-116, 6.85 µM with BT474 and 11.5 µM with LoVo.

Regarding `CC(C)(C)OC(=O)N1CCN(c2ccc(N/C=C3\C(=O)NC(=O)c4ccc(I)cc43)cn2)CC1` [Example 409, tert-Butyl 4-(5-{[(Z)-(6-iodo-1,3-dioxo-2,3-dihydroisoquinolin-4(1H)-ylidene)methyl]amino}pyridin-2-yl)piperazine-1-carboxylate], the IC50 was determined as 36.6 µM in the assay on MCF-7 (MCF-7 cells, 3 days, SRB); 25.6 µM with HCT-116 (HCT116 cells, 3 days, SRB); 41.6 µM in the assay on BT474 (BT474 cells, 6 days, SRB); 6.4 µM with LoVo (LoVo cells, 3 days, SRB).

As to `COc1ccc(CN/C(C)=C2\C(=O)NC(=O)CC2c2ccccc2)cc1O` (centres unmarked) [Example 140, (3Z)-3-{1-[(3-hydroxy-4-methoxybenzyl)amino]ethylidene}-4-phenylpiperidine-2,6-dione], the IC50 in the assay on MCF-7 (MCF-7 cells, SRB, three days) was greater than 50 µM; in the assay with HCT-116 (HCT116 cells, SRB, three days), greater than 50 µM; with BT474 (BT474 cells, SRB, 6 days), 30 µM; in the assay on LoVo (LoVo cells, SRB, three days) it was greater than 50 µM.

As to `O=C1NC(=O)c2ccc(I)cc2/C1=C/NCc1ccc(-c2ccncc2)c(O)c1` [Example 511, 4-[(3-Hydroxy-4-pyridin-4-yl-benzylamino)-methylene]-6-iodo-4H-isoquinoline-1,3-dione], the 50% inhibitory concentration (IC50) in the assay on MCF-7 (MCF-7 cells, 3 days, SRB) was 1.5 µM; with HCT-116 (HCT116 cells, 3 days, SRB) it was 2.3 µM; in the assay with BT474 (BT474 cells, 6 days, SRB), 2.5 µM; in the assay on LoVo (LoVo cells, 3 days, SRB) it was 2.5 µM.

For `O=C1NCc2cc(Cl)ccc2C1=CNc1cccc(O)c1` [Example 856, 7-Chloro-4-[(3-hydroxy-phenylamino)-methylene]-1,4-dihydro-2H-isoquinolin-3-one], the half-maximal inhibitory concentration (IC50) in the assay with MCF-7 (MCF-7 cells, 3 days, SRB) is 3.8 µM; with HCT-116 (HCT116 cells, 3 days, SRB), 12.2 µM; in the assay on BT474 (BT474 cells, 6 days, SRB), 5.6 µM; in the assay on LoVo (LoVo cells, 3 days, SRB), 13.5 µM.

`CCCCN(C)CCN(C)c1ccc(NC=C2C(=O)NC(=O)c3ccc(Br)cc32)cc1` (stereo in doubt) [Example 866, (4Z)-6-Bromo-4-[({4-[{2-[butyl(methyl)amino]ethyl}(methyl)amino]phenyl}amino)methylene]isoquinoline-1,3(2H,4H)-dione]: the half-maximal inhibitory concentration (IC50) was 3.6 µM in the assay on MCF-7 (MCF-7 cells, 3 days, SRB); 2.5 µM in the assay with HCT-116 (HCT116 cells, 3 days, SRB); 6.5 µM with BT474 (BT474 cells, 6 days, SRB); 4.7 µM in the assay on LoVo (LoVo cells, 3 days, SRB).

As to `CCOP(=O)(OCC)c1ccc2c(c1)/C(=C/Nc1ccc(N3CCN(C)CC3)cc1)C(=O)NC2=O` [Example 284, Diethyl [(4Z)-4-({[4-(4-methylpiperazin-1-yl)phenyl]amino}methylene)-1,3-dioxo-1,2,3,4-tetrahydroisoquinolin-6-yl]phosphonate], the IC50 in the assay with MCF-7 was 12 µM; in the assay with HCT-116 it was 20 µM; with BT474 it was greater than 50 µM; in the assay with LoVo, 25 µM.

Take `CCCCN(C)CCN(C)c1ccc(NC=C2C(=O)NC(=O)c3ccc(Br)cc32)cc1` (stereo in doubt) [Example 257, (4Z)-6-Bromo-4-[({4-[{2-[butyl(methyl)amino]ethyl}(methyl)amino]phenyl}amino)methylene]isoquinoline-1,3(2H,4H)-dione]: the IC50 was determined as 3.6 µM in the assay on MCF-7 (MCF-7 cells, SRB, three days); 2.5 µM with HCT-116 (HCT116 cells, SRB, three days); 6.5 µM in the assay on BT474 (BT474 cells, SRB, 6 days); 4.7 µM with LoVo (LoVo cells, SRB, three days).

Consider `O=C1NC(=O)c2ccc(Br)cc2/C1=C/NCc1ccc(NC(=O)C(Cl)Cl)cc1` [Example 302, N-[4-({[(Z)-(6-Bromo-1,3-dioxo-2,3-dihydroisoquinolin-4(1H)-ylidene)methyl]amino}methyl)phenyl]-2,2-dichloroacetamide], for which the IC50 with MCF-7 (MCF-7 cells, SRB, three days) was 1.2 µM; in the assay with HCT-116 (HCT116 cells, SRB, three days), 0.55 µM; in the assay on BT474 (BT474 cells, SRB, 6 days) it was 0.56 µM; in the assay with LoVo (LoVo cells, SRB, three days), 0.59 µM.

Regarding `CN(CCN1CCOCC1)c1ccc(NC=C2C(=O)NC(=O)c3ccc(Br)cc32)cc1` (stereo in doubt) [Example 871, (4Z)-6-Bromo-4-[({4-[methyl(2-morpholin-4-ylethyl)amino]phenyl}amino)methylene]isoquinoline-1,3(2H,4H)-dione], the IC50 with MCF-7 (MCF-7 cells, 3 days, SRB) was 29.1 µM; with HCT-116 (HCT116 cells, 3 days, SRB) it was 13.9 µM; in the assay on BT474 (BT474 cells, 6 days, SRB), greater than 50 µM; in the assay on LoVo (LoVo cells, 3 days, SRB), 46.6 µM.

Take `COc1cnc(CN/C=C2\C(=O)NC(=O)c3ccc(I)cc32)nc1O` [Example 479, 4-{[(4-Hydroxy-5-methoxy-pyrimidin-2-ylmethyl)-amino]-methylene}-6-iodo-4H-isoquinoline-1,3-dione]: the 50% inhibitory concentration (IC50) with MCF-7 (MCF-7 cells, 3 days, SRB) is greater than 50 µM; with HCT-116 (HCT116 cells, 3 days, SRB), greater than 50 µM; in the assay on BT474 (BT474 cells, 6 days, SRB) it was 43 µM; with LoVo (LoVo cells, 3 days, SRB) it was greater than 50 µM.

As to `CN1CCN(c2ccc(N/C=C3\C(=O)NC(C)(C)c4ccc(Br)cc43)cc2)CC1` [Example 452, 6-Bromo-1,1-dimethyl-4-{[4-(4-methyl-piperazin-1-yl)-phenylamino]-methylene}-1,4-dihydro-2H-isoquinolin-3-one], the IC50 in the assay on MCF-7 (MCF-7 cells, 3 days, SRB) is 3.3 µM; with HCT-116 (HCT116 cells, 3 days, SRB), 3.1 µM; with BT474 (BT474 cells, 6 days, SRB), 9.3 µM; in the assay with LoVo (LoVo cells, 3 days, SRB) it was 1.5 µM.
